# Measured values as given in patent publication US8729014B2, “Specific HCV NS3 protease inhibitors” (RFS Pharma, LLC, priority 2010, dated 2014).
# pEC50, pIC50: −log10 of the molar value.
# How the values were obtained:
# [1] = molecular target: Hepatitis C Virus NS3/4A protease A156S (Hepatitis C virus genotype 1b, UniProt O92972, A1182S); test: biochemical
# [2] = system: Hepatitis C Virus NS3/4A protease A156S; test: biochemical; conditions: A156S vs Wild Type
# Chymo-trypsin = test: Inhibition of human proteases: chymotrypsin; assay type: biochemical
# [3] = molecular target: T1, Hepatitis C Virus NS3/4A protease V170A (UniProt Q9WMX2, V1196A, species not given); assay type: biochemical; conditions: V170A
# T1 construct: other: V170A; Anti-HCV protease activity EC90
# [4] = system: Hepatitis C Virus NS3/4A protease V170A; assay type: biochemical; conditions: V170A vs Wild Type
# [5] = molecular target: Hepatitis C Virus NS3/4A protease D168V (Hepatitis C virus genotype 1b, UniProt O92972, D1194V); test: biochemical
# [6] = system: Hepatitis C Virus NS3/4A protease D168V; test: biochemical; conditions: D168V vs Wild Type
# Cathepsin S = molecular target: T2, Cathepsin S (Homo sapiens, UniProt P25774); test: Inhibition of human proteases: cathepsin S; assay type: biochemical
# T2 construct: purchased Anaspec
# Description: (§1) In an effort to circumvent similar toxicities, new protease inhibitors were evaluated for inhibition of a panel of important human proteases. The enzymes tested are Elastase (Neutrophil), Plasmin, Thrombin, and Cathepsin S.
# Cathespsin S (Sensolyte Cathepsin S Activity Assay Kit (Anaspec)): Reactions were conducted in a sample volume of 100 μL per well in a black 96 well plate. Protocol A was followed from the kit insert where DTT was added to assay buffer to yield a […] concentration. Included in each assay were a positive control (diluted enzyme and no test compound), inhibitor control (contains diluted enzyme and plasmin inhibitor; component E or thrombin inhibitor; N-a-NAPAP synthetic inhibitor) and substrate control (assay buffer and substrate). Vehicle and autofluorescence controls were also performed. Drug dilutions were added (10 μL) at 10× concentrations in assay buffer. The cathepsin S was added at 40 μL/well at a concentration of 2.5 μg/mL to all wells except the substrate control. Finally, 50 µL of assay buffer containing substrate was added to each well. The substrate was added to a final concentration of 16 nM. […] The fluorescence intensity was read on the Victor 3 plate reader at Ex/Em=490 nm/520 nm. […] Results are shown as substrate control adjusted percentages of maximum absorbance, which was given by the positive control.
# [7] = system: HCV replicon RNA in Huh 7 Clone B cells; test: HCV replicon assay (replicon RNA, real time RT-PCR); assay type: cell-based; conditions: for DCt HCV / HCV (% inhibition of replicon RNA): five days
# Description: Following five days incubation (37° C., 5% CO2), total cellular RNA was isolated by using versaGene RNA purification kit from Gentra. Replicon RNA and an internal control (TaqMan rRNA control reagents, Applied Biosystems) were amplified in a single step multiplex Real Time RT-PCR Assay. The antiviral effectiveness of the compounds was calculated by subtracting the threshold RT-PCR cycle of the test compound from the threshold RT-PCR cycle of the no-drug control (ΔCt HCV). A ΔCt of 3.3 equals a 1-log reduction (equal to 90% less starting material) in Replicon RNA levels. The cytotoxicity of the compounds was also calculated by using the ΔCt rRNA values. (2′-Me-C) was used as the control. To determine EC90 and IC50 values^2, ΔCt: values were first converted into fraction of starting material^3 and then were used to calculate the % inhibition.
# Cathepsin G = Cathepsin G (Homo sapiens, UniProt P08311); test: Inhibition of human proteases: cathepsin G; assay type: biochemical
# Vero cells = test: Cytotoxicity assay in Vero cells; assay type: cell-based; conditions: Chlorocebus sabaeus; VERO cells, 100 μM
# Description: (§2) The toxicity of the compounds was assessed in Vero, human PBM, CEM (human lymphoblastoid), MT-2, and HepG2 cells, as described previously (see Schinazi R. F., Sommadossi J.-P., Saalmann V., Cannon D. L., Xie M.-Y., Hart G. C., Smith G. A. & Hahn E. F. Antimicrob. Agents Chemother. 1990, 34, 1061-67). Cycloheximide was included as positive cytotoxic control, and untreated cells exposed to solvent were included as negative controls. The cytotoxicity IC50 was obtained from the concentration-response curve using the median effective method described previously (see Chou T.-C. & Talalay P. Adv. Enzyme Regul. 1984, 22, 27-55; Belen'kii M. S. & Schinazi R. F. Antiviral Res. 1994, 25,1-11).
# [8] = Cytotoxicity assay in Vero cells; assay type: cell-based; conditions: African green monkey, Vero cells
# Description: as §2
# [9] = molecular target: T3, Elastase (Human Neutrophil) (Homo sapiens, UniProt P08246); test: Inhibition of human proteases: elastase; assay type: biochemical
# T3 construct: purchased Athens Research and Technology 16-14-051200
# Description: as §1
# Elastase (Human Neutrophil (Cat #16-14-051200 Athens Research and Technology, Athens Ga.)): Reactions were conducted in a sample volume of 100 μL per well in a clear 96 well plate. A 2× assay buffer was made containing 200 mM Tris-HCl (pH 7.5), 150 mM NaCl and 50% glycerol. For each sample 50 μL 2× assay buffer was added to each well. The substrate (MeOSuc-AAPV-pNA, Chromogenic Substrate, Cat #P-213, Enzo Life Sciences, Plymouth Meeting, Pa.; 50 mM stock in DMSO) was added to a final concentration of 1 mM. The drug dilutions were added (25 μL) at 4× concentrations in water. Finally, a mixture was made of 1 μL elastase and 22 μL water for each sample and 23 μL was added to each well. The samples were incubated at room temperature for 30 min. The absorbance at 405 nm was read on the Victor 3 plate reader. All samples were tested in duplicate. Results are shown as blank adjusted (no Elastase) percentages of maximum absorbance, which was given by a no inhibitor control.
# [10] = Hepatitis C virus, HCV replicon, Huh 7 Clone B cells
smiles,measurement,setting,value
C=C[C@@H]1C[C@]1(NC(=O)[C@@H]1C[C@@H](OC(=O)N2Cc3cccc(F)c3C2)CN1C(=O)[C@@H](NC(=O)OC(C)(C)C)C(C)(C)C)C(=O)NS(=O)(=O)C1CC1 [Compound 10],pEC50,[1],8.10
same,EC90,"[1]; A156S, read-out: Anti-HCV protease activity EC90",85 nM
same,Fold Increase of EC50,[2],1.6
same,Fold Increase of EC90,[2],2.9
same,pIC50,Chymo-trypsin,< 4.00
same,pEC50,[3]; read-out: Anti-HCV protease activity EC50,8.26
same,EC90,[3]; read-out: Anti-HCV protease activity EC90,9.5 nM
same,Fold Increase of EC50,[4],1.1
same,Fold Increase of EC90,[4],0.3
same,pEC50,[5],7.40
same,EC90,"[5]; D168V, read-out: Anti-HCV protease activity EC90",630 nM
same,Fold Increase of EC50,[6],8.1
same,Fold Increase of EC90,[6],21.1
same,pIC50,Cathepsin S,< 4.00
same,DCt HCV,[7]; Conc 0.01 μM,1.16
same,HCV (% inhibition of replicon RNA),[7]; Conc 0.01 μM,54.99
same,DCt HCV,[7]; Conc 0.03 μM,3.29
same,HCV (% inhibition of replicon RNA),[7]; Conc 0.03 μM,89.67
same,DCt HCV,[7]; Conc 0.1 μM,6.05
same,HCV (% inhibition of replicon RNA),[7]; Conc 0.1 μM,98.47
same,DCt HCV,[7]; Conc 0.3 μM,8.72
same,HCV (% inhibition of replicon RNA),[7]; Conc 0.3 μM,99.76
same,pEC50,[7]; [10],8.00
same,EC90,[7]; [10],30 nM
same,pIC50,Cathepsin G,< 4.00
same,inhibition at 100 µM,Vero cells,-0.8%
same,pIC50,[8],< 4.00
same,pIC50,[9],< 4.00
